Data reported in PMC2798597 (Biochemical pharmacology, 2009).

What was measured:
KBv200 (ABCB1) = test: MTT cytotoxicity / MDR reversal; type: cell-based, human; conditions: KBv200 cells
KB-3-1 = test: MTT cytotoxicity / MDR reversal; type: cell-based, human; conditions: KB-3-1 cells; +5 µM FG020326
[1] = tested on: the entire cell lines tested; test: MTT cytotoxicity of FG020326 alone; type: cell-based
MCF-7/adr (ABCB1) = test: MTT cytotoxicity / MDR reversal; type: cell-based, human; conditions: MCF-7/adr cells
KBv200 cells [2] = test: Intracellular Dox accumulation; type: cell-based, human
S1 = test: MTT cytotoxicity / MDR reversal; type: cell-based; conditions: S1 cells; +5 µM FG020326
NIH3T3 = test: MTT cytotoxicity / MDR reversal; type: cell-based, murine; conditions: NIH3T3 cells; +5 µM FG020326
[3] = FG020326 plasma levels in mice; type: in vivo; conditions: NIH mice, 100 mg/kg p.o.; for plasma concentration at 8 h: 8 h after administration
[4] = tested on: ABCB1 expression in KBv200 cells; conditions: 48 h, Western blot
KB = test: MTT cytotoxicity / MDR reversal; type: cell-based, human; conditions: KB cells
NIH3T3/MRP-4-2 (ABCC4) = test: MTT cytotoxicity / MDR reversal; type: cell-based, murine; conditions: NIH3T3/MRP-4-2 cells; +5 µM FG020326
KB cells [5] = test: Intracellular Dox accumulation; type: cell-based, human; conditions: drug sensitive KB cells; 0.625-10 µM
S1-M1-80 (ABCG2) = test: MTT cytotoxicity / MDR reversal; type: cell-based; conditions: S1-M1-80 cells; +5 µM FG020326
KBv200 cells [6] = test: Dox efflux; type: cell-based, human; conditions: 5 µM FG020326
KBv200 cell xenografts = test: MDR human carcinoma xenograft model; type: in vivo, athymic nude mice
SW1573 = test: MTT cytotoxicity / MDR reversal; type: cell-based, human; conditions: SW1573 cells; +5 µM FG020326
SW1573/2R120 (LRP) = test: MTT cytotoxicity / MDR reversal; type: cell-based, human; conditions: SW1573/2R120 cells; +5 µM FG020326
KB cells [7] = test: ABCB1 function analysis, Rho 123 retention; type: cell-based, human; conditions: drug sensitive KB cells
KB-CV60 (ABCC1) = test: MTT cytotoxicity / MDR reversal; type: cell-based, human; conditions: KB-CV60 cells; +5 µM FG020326
ABCB1 = ABCB1 (Homo sapiens, UniProt P08183); type: biochemical; conditions: read-out: IC50, inhibition of ABCB1 ATPase activity; Vi-sensitive ATPase; membrane vesicles of High Five insect cells
KB cells [8] = test: Dox efflux; type: cell-based, human; conditions: 5 µM FG020326
MCF-7 = test: MTT cytotoxicity / MDR reversal; type: cell-based, human; conditions: MCF-7 cells
[9] = VCR experiment, VCR 0.2 mg/kg i.p. q2d×6, FG020326 100 mg/kg p.o. q2d×6
[10] = paclitaxel experiment, paclitaxel 18 mg/kg i.p. q5d×3, FG020326 100 mg/kg p.o.

ABCB1, sequence (P08183 whole entry): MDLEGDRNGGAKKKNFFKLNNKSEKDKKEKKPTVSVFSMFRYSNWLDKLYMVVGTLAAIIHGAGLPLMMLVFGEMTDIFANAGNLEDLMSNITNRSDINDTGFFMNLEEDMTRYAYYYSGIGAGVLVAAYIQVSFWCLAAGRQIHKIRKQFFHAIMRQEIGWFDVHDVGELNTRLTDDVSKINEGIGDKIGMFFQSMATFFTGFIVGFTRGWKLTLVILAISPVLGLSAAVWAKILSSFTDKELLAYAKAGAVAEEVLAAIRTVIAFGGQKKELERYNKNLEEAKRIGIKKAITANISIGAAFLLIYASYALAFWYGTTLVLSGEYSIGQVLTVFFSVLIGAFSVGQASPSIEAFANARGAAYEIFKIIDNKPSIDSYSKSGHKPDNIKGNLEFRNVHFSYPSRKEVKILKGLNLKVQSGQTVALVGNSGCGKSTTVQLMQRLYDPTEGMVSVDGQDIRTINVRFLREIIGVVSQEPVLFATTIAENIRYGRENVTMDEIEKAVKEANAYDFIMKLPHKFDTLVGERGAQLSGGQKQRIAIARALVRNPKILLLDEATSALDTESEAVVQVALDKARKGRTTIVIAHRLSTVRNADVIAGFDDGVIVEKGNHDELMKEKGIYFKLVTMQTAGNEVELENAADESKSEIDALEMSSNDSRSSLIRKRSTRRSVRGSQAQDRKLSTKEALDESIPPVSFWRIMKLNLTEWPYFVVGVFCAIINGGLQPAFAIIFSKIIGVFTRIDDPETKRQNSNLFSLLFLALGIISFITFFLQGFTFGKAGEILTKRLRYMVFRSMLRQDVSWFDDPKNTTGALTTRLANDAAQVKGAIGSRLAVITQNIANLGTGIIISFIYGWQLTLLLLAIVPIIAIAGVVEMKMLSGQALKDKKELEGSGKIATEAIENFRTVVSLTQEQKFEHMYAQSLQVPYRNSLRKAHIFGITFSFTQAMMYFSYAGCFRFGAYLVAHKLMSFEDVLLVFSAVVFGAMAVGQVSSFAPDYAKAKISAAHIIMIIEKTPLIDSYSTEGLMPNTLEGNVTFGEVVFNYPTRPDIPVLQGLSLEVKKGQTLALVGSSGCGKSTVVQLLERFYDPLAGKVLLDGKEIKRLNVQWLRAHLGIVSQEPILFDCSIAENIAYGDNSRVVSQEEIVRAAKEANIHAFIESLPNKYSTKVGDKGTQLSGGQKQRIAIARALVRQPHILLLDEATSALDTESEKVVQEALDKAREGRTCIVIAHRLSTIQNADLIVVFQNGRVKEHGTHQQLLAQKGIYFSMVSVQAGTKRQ

COC(=O)/C=C/c1ccc(-c2nc(-c3ccc(N(C)C(C)C)cc3)c(-c3ccc(N(C)C(C)C)cc3)[nH]2)cc1 [FG020326, 2-[(4-Methyl-trans-acrylate)phenyl]-4,5-bis-(4-N, N-methyl-isopropyl-aminophenyl)-1(H)-imidazole]
fold-reversal (doxorubicin) (KBv200 (ABCB1); +1.25 µM FG020326): (4.2) fold | fold-reversal (paclitaxel) (KBv200 (ABCB1); +1.25 µM FG020326): (5.0) fold | fold-reversal (vincristine) (KBv200 (ABCB1); +1.25 µM FG020326): (16.7) fold | fold-reversal (doxorubicin) (KBv200 (ABCB1); +2.5 µM FG020326): (8.0) fold | fold-reversal (paclitaxel) (KBv200 (ABCB1); +2.5 µM FG020326): (10.3) fold | fold-reversal (vincristine) (KBv200 (ABCB1); +2.5 µM FG020326): (34.7) fold | fold-reversal (doxorubicin) (KBv200 (ABCB1); +5 µM FG020326): (12.2) fold | fold-reversal (paclitaxel) (KBv200 (ABCB1); +5 µM FG020326): (30.4) fold | fold-reversal (vincristine) (KBv200 (ABCB1); +5 µM FG020326): (57.3) fold | fold-reversal (vincristine) (KB-3-1): (0.9) fold | Cell survival ([1]; all cell lines, concentrations used to reverse MDR, data not shown): > 90% | IC50 ([1]; read-out: IC50 (cytotoxicity of FG020326 alone), MTT, entire cell lines tested): > 50 µM | fold-reversal (doxorubicin) (MCF-7/adr (ABCB1); +1.25 µM FG020326): (6.4) fold | fold-reversal (paclitaxel) (MCF-7/adr (ABCB1); +1.25 µM FG020326): (3.5) fold | fold-reversal (vincristine) (MCF-7/adr (ABCB1); +1.25 µM FG020326): (2.3) fold | fold-reversal (doxorubicin) (MCF-7/adr (ABCB1); +2.5 µM FG020326): (9.6) fold | fold-reversal (paclitaxel) (MCF-7/adr (ABCB1); +2.5 µM FG020326): (8.8) fold | fold-reversal (vincristine) (MCF-7/adr (ABCB1); +2.5 µM FG020326): (4.6) fold | fold-reversal (cisplatin) (MCF-7/adr (ABCB1); +5 µM FG020326): (0.9) fold | fold-reversal (doxorubicin) (MCF-7/adr (ABCB1); +5 µM FG020326): (14.3) fold | fold-reversal (paclitaxel) (MCF-7/adr (ABCB1); +5 µM FG020326): (22.0) fold | fold-reversal (vincristine) (MCF-7/adr (ABCB1); +5 µM FG020326): (10.7) fold | enhancement of Dox accumulation (KBv200 cells [2]; 0.625 µM FG020326, 10 µM Dox): 1.4 fold | enhancement of Dox accumulation (KBv200 cells [2]; 1.25 µM FG020326, 10 µM Dox): 2.1 fold | enhancement of Dox accumulation (KBv200 cells [2]; 2.5 µM FG020326, 10 µM Dox): 2.6 fold | enhancement of Dox accumulation (KBv200 cells [2]; 5 µM FG020326, 10 µM Dox): 3.0 fold | enhancement of Dox accumulation (KBv200 cells [2]; 10 µM FG020326, 10 µM Dox): 3.7 fold | fold-reversal (topotecan) (S1): (1.1) fold | fold-reversal (vincristine) (NIH3T3): (0.9) fold | peak plasma concentration ([3]; 100 mg/kg): about 5.3 µM | plasma concentration at 8 h ([3]; 100 mg/kg): not less than 1.24 µM | plasma concentration at 8 h ([3]; listed as FG020236, 100 mg/kg): > 1240 nM | plasma concentration at 12 h ([3]; 12 h after administration): 920 nM | peak plasma concentration ([3]; listed as FG020236, 100 mg/kg): 5.3 µM | effect on ABCB1 protein expression level [4]: no marked difference | fold-reversal (doxorubicin) (KB; +1.25 µM FG020326): (1.0) fold | fold-reversal (paclitaxel) (KB; +1.25 µM FG020326): (1.0) fold | fold-reversal (vincristine) (KB; +1.25 µM FG020326): (1.0) fold | fold-reversal (doxorubicin) (KB; +2.5 µM FG020326): (1.0) fold | fold-reversal (paclitaxel) (KB; +2.5 µM FG020326): (1.0) fold | fold-reversal (vincristine) (KB; +2.5 µM FG020326): (1.0) fold | fold-reversal (5-FU) (KB; +5 µM FG020326): (1.0) fold | fold-reversal (doxorubicin) (KB; +5 µM FG020326): (0.9) fold | fold-reversal (paclitaxel) (KB; +5 µM FG020326): (1.1) fold | fold-reversal (vincristine) (KB; +5 µM FG020326): (1.0) fold | fold-reversal (vincristine) (NIH3T3/MRP-4-2 (ABCC4)): (0.9) fold | effect on intracellular accumulation of Dox (KB cells [5]): did not significantly alter the intracellular accumulation of Dox | fold-reversal (topotecan) (S1-M1-80 (ABCG2)): (1.0) fold | effect on efflux of Dox (KBv200 cells [6]): significantly inhibited the efflux of Dox | Growth Inhibition (KBv200 cell xenografts; [9]): 9.4% | Weight of tumor (KBv200 cell xenografts; [9]): 2.43 ± 0.70 g | Growth Inhibition (KBv200 cell xenografts; [10]): 7.2% | Weight of tumor (KBv200 cell xenografts; [10]): 2.08 ± 1.00 g | fold-reversal (doxorubicin) (SW1573): (1.2) fold | fold-reversal (doxorubicin) (SW1573/2R120 (LRP)): (1.0) fold | effect on Rho 123 accumulation (KB cells [7]): not significantly altered | fold-reversal (vincristine) (KB-CV60 (ABCC1)): (0.9) fold | IC50 (ABCB1): 2.5 µM | effect on efflux of Dox (KB cells [8]): but not the KB cells | fold-reversal (doxorubicin) (MCF-7; +1.25 µM FG020326): (1.0) fold | fold-reversal (paclitaxel) (MCF-7; +1.25 µM FG020326): (1.1) fold | fold-reversal (vincristine) (MCF-7; +1.25 µM FG020326): (0.9) fold | fold-reversal (doxorubicin) (MCF-7; +2.5 µM FG020326): (1.0) fold | fold-reversal (paclitaxel) (MCF-7; +2.5 µM FG020326): (1.0) fold | fold-reversal (vincristine) (MCF-7; +2.5 µM FG020326): (1.0) fold | fold-reversal (cisplatin) (MCF-7; +5 µM FG020326): (0.9) fold | fold-reversal (doxorubicin) (MCF-7; +5 µM FG020326): (0.9) fold | fold-reversal (paclitaxel) (MCF-7; +5 µM FG020326): (1.0) fold | fold-reversal (vincristine) (MCF-7; +5 µM FG020326): (0.9) fold
